Data as given in ChEMBL document CHEMBL1201862, “PubChem BioAssay data set” (2004).
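Briefly, cells in 96-well plates were exposed to five compound concentrations for 48 h, and endpoints were estimated by linear interpolation. Here, GI50 denotes the concentration required for 50% inhibition of growth.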 Calls of active or inactive are those of the source. Cut-off read from the data, not from the text of the source: active = GI50 up to about 1.1 µM and inactive = higher.

What was measured:
Assay in all cases: NCI-60 cell line screen, 48 h
NCI-H23 = tested on: NCI-H23
COLO 205 = tested on: COLO 205
MOLT-4 = tested on: MOLT-4
UACC-257 = tested on: UACC-257
HOP-92 = tested on: HOP-92
IGROV-1 = tested on: IGROV-1
TK-10 = tested on: TK-10
SW-620 = tested on: SW-620
HCT-116 = tested on: HCT-116
SF-539 = tested on: SF-539
A498 = tested on: A498
LOX IMVI = tested on: LOX IMVI
NCI-H460 = tested on: NCI-H460
ACHN = tested on: ACHN
PC-3 = tested on: PC-3
U-251 = tested on: U-251
CCRF-CEM = tested on: CCRF-CEM
RXF 393 = tested on: RXF 393
SNB-75 = tested on: SNB-75
KM12 = tested on: KM12

Nc1ncnc2c1nc(O)n2-c1ccccc1
GI50 (NCI-H23): > 100 µM (inactive) | GI50 (COLO 205): > 100 µM (inactive) | GI50 (MOLT-4): > 100 µM (inactive) | GI50 (UACC-257): > 100 µM (inactive) | GI50 (HOP-92): 96.8 µM (inactive) | GI50 (IGROV-1): > 100 µM (inactive) | GI50 (TK-10): > 100 µM (inactive) | GI50 (SW-620): > 100 µM (inactive) | GI50 (HCT-116): > 100 µM (inactive) | GI50 (SF-539): > 100 µM (inactive) | GI50 (A498): > 100 µM (inactive) | GI50 (LOX IMVI): > 100 µM (inactive) | GI50 (NCI-H460): > 100 µM (inactive) | GI50 (ACHN): > 100 µM (inactive) | GI50 (PC-3): > 100 µM (inactive)

CCOC(=O)C(NC(=O)CC)(Nc1ccc(S(=O)(=O)Nc2ncccn2)cc1)C(F)(F)F (stereo not drawn)
GI50 (NCI-H23): > 100 µM (inactive) | GI50 (COLO 205): > 100 µM (inactive) | GI50 (U-251): > 100 µM (inactive) | GI50 (MOLT-4): > 100 µM (inactive) | GI50 (UACC-257): > 100 µM (inactive) | GI50 (HOP-92): > 100 µM (inactive) | GI50 (CCRF-CEM): > 100 µM (inactive) | GI50 (RXF 393): > 100 µM (inactive) | GI50 (IGROV-1): > 100 µM (inactive) | GI50 (SNB-75): > 100 µM (inactive) | GI50 (KM12): > 100 µM (inactive) | GI50 (SW-620): > 100 µM (inactive) | GI50 (HCT-116): > 100 µM (inactive) | GI50 (SF-539): > 100 µM (inactive) | GI50 (LOX IMVI): > 100 µM (inactive) | GI50 (NCI-H460): > 100 µM (inactive) | GI50 (ACHN): > 100 µM (inactive) | GI50 (PC-3): > 100 µM (inactive)

COc1cc(S(=O)(=O)Nc2ccc(-c3csc(/N=C\c4cccs4)n3)cc2)ccc1Cl
GI50 (NCI-H23): 53.1 µM (inactive) | GI50 (COLO 205): 32.5 µM (inactive) | GI50 (UACC-257): 51.8 µM (inactive) | GI50 (HOP-92): > 100 µM (inactive) | GI50 (CCRF-CEM): 19.8 µM (inactive) | GI50 (IGROV-1): 69.7 µM (inactive) | GI50 (TK-10): 49.9 µM (inactive) | GI50 (SNB-75): 30.3 µM (inactive) | GI50 (SW-620): 34.3 µM (inactive) | GI50 (HCT-116): 37.4 µM (inactive) | GI50 (SF-539): 39.7 µM (inactive) | GI50 (A498): 31.8 µM (inactive) | GI50 (LOX IMVI): 36.2 µM (inactive) | GI50 (NCI-H460): 53 µM (inactive) | GI50 (ACHN): > 100 µM (inactive) | GI50 (PC-3): > 100 µM (inactive)

COc1ccc(OC)c(N(CN2C(=O)CCC2C(=O)O)C(C)=O)c1 (stereo not drawn)
GI50 (NCI-H23): > 100 µM (inactive) | GI50 (COLO 205): > 100 µM (inactive) | GI50 (U-251): > 100 µM (inactive) | GI50 (MOLT-4): > 100 µM (inactive) | GI50 (UACC-257): > 100 µM (inactive) | GI50 (HOP-92): > 100 µM (inactive) | GI50 (CCRF-CEM): > 100 µM (inactive) | GI50 (IGROV-1): > 100 µM (inactive) | GI50 (TK-10): > 100 µM (inactive) | GI50 (SNB-75): > 100 µM (inactive) | GI50 (KM12): > 100 µM (inactive) | GI50 (SW-620): > 100 µM (inactive) | GI50 (HCT-116): > 100 µM (inactive) | GI50 (SF-539): > 100 µM (inactive) | GI50 (A498): > 100 µM (inactive) | GI50 (LOX IMVI): > 100 µM (inactive) | GI50 (NCI-H460): > 10 µM (inactive) | GI50 (ACHN): > 100 µM (inactive) | GI50 (PC-3): > 100 µM (inactive)

O=C(O)c1ccc(Nc2nc3ccc(C(F)(F)F)cc3nc2C(=O)O)cc1
GI50 (NCI-H23): > 100 µM (inactive) | GI50 (COLO 205): > 100 µM (inactive) | GI50 (U-251): > 100 µM (inactive) | GI50 (MOLT-4): > 100 µM (inactive) | GI50 (UACC-257): > 100 µM (inactive) | GI50 (HOP-92): > 100 µM (inactive) | GI50 (CCRF-CEM): > 100 µM (inactive) | GI50 (RXF 393): > 100 µM (inactive) | GI50 (IGROV-1): > 100 µM (inactive) | GI50 (TK-10): > 100 µM (inactive) | GI50 (SNB-75): > 100 µM (inactive) | GI50 (KM12): > 100 µM (inactive) | GI50 (SW-620): > 100 µM (inactive) | GI50 (HCT-116): > 100 µM (inactive) | GI50 (SF-539): > 100 µM (inactive) | GI50 (LOX IMVI): > 100 µM (inactive) | GI50 (NCI-H460): > 100 µM (inactive) | GI50 (ACHN): > 100 µM (inactive) | GI50 (PC-3): > 100 µM (inactive)

Cc1cccc(Cl)c1NC(=O)/C=C/c1ccccc1
GI50 (NCI-H23): > 100 µM (inactive) | GI50 (COLO 205): > 100 µM (inactive) | GI50 (U-251): 87.7 µM (inactive) | GI50 (MOLT-4): > 100 µM (inactive) | GI50 (UACC-257): > 100 µM (inactive) | GI50 (HOP-92): 29.6 µM (inactive) | GI50 (CCRF-CEM): > 100 µM (inactive) | GI50 (IGROV-1): 97.5 µM (inactive) | GI50 (TK-10): 40.6 µM (inactive) | GI50 (SNB-75): 24.2 µM (inactive) | GI50 (KM12): 74.5 µM (inactive) | GI50 (SW-620): > 100 µM (inactive) | GI50 (HCT-116): 39.4 µM (inactive) | GI50 (SF-539): 44.8 µM (inactive) | GI50 (A498): > 100 µM (inactive) | GI50 (LOX IMVI): > 100 µM (inactive) | GI50 (NCI-H460): 86.3 µM (inactive) | GI50 (ACHN): 42.3 µM (inactive) | GI50 (PC-3): > 100 µM (inactive)

Cc1c2n(c3ccccc13)S(=O)(=O)c1ccccc1-2
GI50 (NCI-H23): 23.2 µM (inactive) | GI50 (COLO 205): > 100 µM (inactive) | GI50 (U-251): 18.4 µM (inactive) | GI50 (MOLT-4): > 100 µM (inactive) | GI50 (UACC-257): > 100 µM (inactive) | GI50 (HOP-92): 30.2 µM (inactive) | GI50 (CCRF-CEM): > 100 µM (inactive) | GI50 (IGROV-1): 25.3 µM (inactive) | GI50 (TK-10): 25.6 µM (inactive) | GI50 (KM12): > 100 µM (inactive) | GI50 (SW-620): > 100 µM (inactive) | GI50 (HCT-116): 21.2 µM (inactive) | GI50 (A498): 11 µM (inactive) | GI50 (LOX IMVI): 44.6 µM (inactive) | GI50 (NCI-H460): 30.5 µM (inactive) | GI50 (ACHN): 18.1 µM (inactive) | GI50 (PC-3): 22.5 µM (inactive)

CCN(CC)P1(=S)Oc2ccc3ccccc3c2-c2c(ccc3ccccc23)O1
GI50 (NCI-H23): > 100 µM (inactive) | GI50 (COLO 205): > 100 µM (inactive) | GI50 (U-251): > 100 µM (inactive) | GI50 (MOLT-4): > 100 µM (inactive) | GI50 (UACC-257): > 100 µM (inactive) | GI50 (HOP-92): > 100 µM (inactive) | GI50 (CCRF-CEM): > 100 µM (inactive) | GI50 (IGROV-1): 89.3 µM (inactive) | GI50 (TK-10): > 100 µM (inactive) | GI50 (SNB-75): 32.2 µM (inactive) | GI50 (KM12): 5 µM (inactive) | GI50 (SW-620): > 100 µM (inactive) | GI50 (HCT-116): 83 µM (inactive) | GI50 (SF-539): > 100 µM (inactive) | GI50 (A498): > 100 µM (inactive) | GI50 (LOX IMVI): > 100 µM (inactive) | GI50 (NCI-H460): > 100 µM (inactive) | GI50 (ACHN): 67.3 µM (inactive) | GI50 (PC-3): > 100 µM (inactive)

O=C(Nc1ccccc1)c1cc2ccccc2c(/N=N/c2ccc([N+](=O)[O-])cc2)c1O
GI50 (NCI-H23): 33.2 µM (inactive) | GI50 (COLO 205): > 100 µM (inactive) | GI50 (U-251): 31.4 µM (inactive) | GI50 (MOLT-4): 17 µM (inactive) | GI50 (UACC-257): > 100 µM (inactive) | GI50 (HOP-92): 99.3 µM (inactive) | GI50 (CCRF-CEM): 4.85 µM (inactive) | GI50 (RXF 393): 82.4 µM (inactive) | GI50 (IGROV-1): > 100 µM (inactive) | GI50 (TK-10): 56.1 µM (inactive) | GI50 (SNB-75): 73.5 µM (inactive) | GI50 (KM12): > 100 µM (inactive) | GI50 (SW-620): > 100 µM (inactive) | GI50 (HCT-116): > 100 µM (inactive) | GI50 (LOX IMVI): > 100 µM (inactive) | GI50 (ACHN): > 100 µM (inactive) | GI50 (PC-3): > 100 µM (inactive)

CC(C)CC(NP(=O)(O)OC1OC(C)C(O)C(O)C1O)C(=O)NC(Cc1c[nH]c2ccccc12)C(=O)O (stereo not drawn)
GI50 (NCI-H23): > 100 µM (inactive) | GI50 (COLO 205): > 100 µM (inactive) | GI50 (U-251): > 100 µM (inactive) | GI50 (MOLT-4): > 100 µM (inactive) | GI50 (UACC-257): > 100 µM (inactive) | GI50 (HOP-92): > 100 µM (inactive) | GI50 (CCRF-CEM): > 100 µM (inactive) | GI50 (IGROV-1): > 100 µM (inactive) | GI50 (SNB-75): > 100 µM (inactive) | GI50 (KM12): > 100 µM (inactive) | GI50 (SW-620): > 100 µM (inactive) | GI50 (HCT-116): > 100 µM (inactive) | GI50 (SF-539): > 100 µM (inactive) | GI50 (A498): > 100 µM (inactive) | GI50 (NCI-H460): > 100 µM (inactive) | GI50 (PC-3): > 100 µM (inactive)

COc1ccc(-c2oc3c(OC)c(OC)c(OC)c(OC)c3c(=O)c2OC)cc1OC [3,5,6,7,8,3',4'-HEPTAMETHOXYFLAVONE]
GI50 (NCI-H23): 72.6 µM (inactive) | GI50 (COLO 205): 65.6 µM (inactive) | GI50 (U-251): 51.5 µM (inactive) | GI50 (MOLT-4): 22.4 µM (inactive) | GI50 (UACC-257): 53.1 µM (inactive) | GI50 (HOP-92): 0.0481 µM (active) | GI50 (CCRF-CEM): 25.6 µM (inactive) | GI50 (IGROV-1): 30.3 µM (inactive) | GI50 (TK-10): 61 µM (inactive) | GI50 (KM12): 47.5 µM (inactive) | GI50 (SW-620): 32.8 µM (inactive) | GI50 (HCT-116): 47.4 µM (inactive) | GI50 (SF-539): 65.8 µM (inactive) | GI50 (A498): 31 µM (inactive) | GI50 (LOX IMVI): 27 µM (inactive) | GI50 (NCI-H460): 19.8 µM (inactive) | GI50 (ACHN): 33.5 µM (inactive) | GI50 (PC-3): 26.6 µM (inactive)
